Assay results published in ChEMBL document CHEMBL1201862, “PubChem BioAssay data set” (2004).
Where “and” joins values, the source holds several entries; their conditions need not be identical. Equal entries are not always repeated.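 These data come from cells grown in 96-well plates and exposed to compound for 48 hours at five concentrations. The concentration for 50% growth inhibition is given as GI50.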 Calls of active or inactive are those of the source. Rule as the data show it: active = GI50 up to about 1.1 µM and inactive = higher.

Tests used:
Assay in all cases: NCI anticancer screen, dose series, 48 h
[1] = system: EKVX
[2] = system: NCI-H460
[3] = system: HOP-92
[4] = system: KM12
[5] = system: M14
[6] = system: K562
[7] = system: A549
[8] = system: TK-10
[9] = system: SF-268
[10] = system: RXF 393
[11] = system: SF-295
[12] = system: Hs-578T
[13] = system: HL-60
[14] = system: COLO 205
[15] = system: IGROV-1
[16] = system: UO-31
[17] = system: SNB-75
[18] = system: MCF7
[19] = system: SW-620

Measured: GI50

CN(C)C(c1ccccc1)C1COC2Cc3ccccc3C1O2 (centres undefined)
inactive: [1] > 100 µM | [2] > 100 µM | [3] 58.1 µM | [4] > 100 µM | [5] > 100 µM | [6] 66.2 µM and 38.7 µM | [7] > 100 µM | [8] > 100 µM | [9] > 100 µM | [10] > 100 µM | [11] > 100 µM | [12] 92.3 µM | [13] 65 µM and 46.8 µM | [14] > 100 µM | [15] > 100 µM | [16] > 100 µM | [17] 24.9 µM and 15.5 µM

O/N=C1/CCCCCC1NO (centres undefined)
inactive: [1] > 100 µM | [18] > 100 µM | [2] > 100 µM | [3] > 100 µM | [4] > 100 µM | [5] > 100 µM | [19] > 100 µM | [7] > 100 µM | [8] > 100 µM | [9] > 100 µM | [10] > 100 µM | [11] > 100 µM | [12] > 100 µM | [14] > 100 µM | [15] > 100 µM | [16] > 100 µM

CN1CCN(C2=C(Cl)C3(OCCS3)C(F)(F)C2(F)F)CC1 (centres undefined)
inactive: [1] > 100 µM | [18] > 100 µM | [3] 66.5 µM | [5] > 100 µM | [19] > 100 µM | [6] 29.8 µM | [7] 95.9 µM | [8] > 100 µM | [9] > 100 µM | [10] > 100 µM | [11] 48.2 µM | [12] > 100 µM | [13] 64.4 µM | [14] 43.4 µM | [15] > 100 µM | [16] 55 µM | [17] 51.3 µM

N#Cc1sc2c(c1OC(=O)c1ccc(Cl)cc1)c(=O)n(-c1ccccc1)c(=S)n2-c1ccccc1
inactive: [1] 21 µM | [18] 23.1 µM | [2] 16.4 µM | [3] 18.5 µM | [4] 14.9 µM | [5] 20.4 µM | [19] 21.2 µM | [6] 22 µM | [7] 31.4 µM | [8] 23.3 µM | [9] 23.3 µM | [10] 19.7 µM | [11] 19.2 µM | [12] 15.6 µM | [13] 19.4 µM | [14] 18.5 µM | [15] 16.7 µM | [17] 40.8 µM

Cc1ccc(S(=O)(=O)N/N=C2\C=C[C@]3(CC2)C(=O)N(C)c2ccccc23)cc1
inactive: [1] > 100 µM | [18] > 100 µM | [2] > 100 µM | [3] > 100 µM | [4] > 100 µM | [5] > 100 µM | [19] > 100 µM | [6] > 100 µM | [7] > 100 µM | [9] > 100 µM | [10] > 100 µM | [11] > 100 µM | [12] 98.9 µM | [13] > 100 µM | [14] > 100 µM | [15] > 100 µM | [16] > 100 µM | [17] > 100 µM

O=[N+]([O-])c1ccc2[nH]nc(OCc3ccccn3)c2c1
inactive: [1] > 100 µM | [2] > 100 µM | [3] 35.7 µM | [4] > 100 µM | [5] > 100 µM | [19] > 100 µM | [6] > 100 µM | [7] > 100 µM | [8] 47.2 µM | [9] > 100 µM | [10] > 100 µM | [11] 38.8 µM | [12] 35.2 µM | [13] > 100 µM | [14] > 100 µM | [15] > 100 µM | [16] > 100 µM | [17] 31.5 µM
